# Patent US4022895A, “Substituted phenylglycylcephalosporins” (SmithKline Corporation, priority 1975, dated 1977)
# Like-named read-outs stand apart in the source and are kept apart here.
# Columns and labels:
# E.coli SK 12140 = assay: In vitro antibacterial activity (MIC); assay type: cell-based; conditions: Escherichia coli, SK12140
# Method: (§1) The compounds of this invention have antibacterial activity against Gram-positive and Gram-negative organisms. Minimum inhibitory concentrations (MIC's) ranged from 0.4 to >200 μg/ml in in vitro testing.
# S.aureus SK 23390 = assay: In vitro antibacterial activity (MIC); assay type: cell-based; conditions: Staphylococcus aureus, SK23390
# Method: as §1
# Shig. paradys HH 112 = assay: In vitro antibacterial activity (MIC); assay type: cell-based; conditions: Shig. paradys HH 112, in vitro; read-out: MIC
# Method: as §1
# Kleb. pneumo. SK 1200 = assay: In vitro antibacterial activity (MIC); assay type: cell-based
# Method: as §1
# E. coli HH 33779 = assay: In vitro antibacterial activity (MIC); assay type: cell-based; conditions: Escherichia coli, HH33779; E. coli HH 33779, in vitro; read-out: MIC
# Method: as §1
# Strep. faecalis HH 34358 = assay: In vitro antibacterial activity (MIC); assay type: cell-based; conditions: Enterococcus faecalis, HH34358; Strep. faecalis HH 34358, in vitro
# Method: as §1
# S.aureus Villaluz = assay: In vitro antibacterial activity (MIC); assay type: cell-based; conditions: Staphylococcus aureus
# Method: as §1
# S.aureus HH 127 = assay: In vitro antibacterial activity (MIC); assay type: cell-based; conditions: Staphylococcus aureus, HH127
# Method: as §1
# [1] = tested on: Entero. aerog. ATCC 13048; assay: In vitro antibacterial activity (MIC); assay type: cell-based
# Method: as §1
# Kleb. pneumo. SK 4200 = assay: In vitro antibacterial activity (MIC); assay type: cell-based
# Method: as §1
# Proteus morgani 179 = assay: In vitro antibacterial activity (MIC); assay type: cell-based; conditions: Proteus morgani 179, in vitro; read-out: MIC
# Method: as §1
# Klebs.pneumo. 4200 = assay: In vivo activity (ED50) against Klebs.pneumo. 4200
# E.coli 12140 = assay: In vivo activity (ED50) against E.coli 12140
# [2] = E.coli SK 12140, in vitro, read-out: MIC
# [3] = S.aureus SK 23390, in vitro, read-out: MIC
# [4] = Kleb. pneumo. SK 1200, in vitro, read-out: MIC
# [5] = S.aureus HH 127, in vitro, read-out: MIC
# [6] = Entero. aerog. ATCC 13048, in vitro, read-out: MIC
# [7] = Kleb. pneumo. SK 4200, in vitro, read-out: MIC
# [8] = po, Klebs.pneumo. 4200, p.o., read-out: ED50
# [9] = sc, Klebs.pneumo. 4200, s.c., read-out: ED50
# [10] = Escherichia coli, 12140, po, E.coli 12140, p.o.
# [11] = Escherichia coli, 12140, sc, E.coli 12140, s.c.
Structure (SMILES),MIC (E.coli SK 12140; [2]) [µg/mL],MIC (S.aureus SK 23390; [3]) [µg/mL],MIC (Shig. paradys HH 112) [µg/mL],MIC (Kleb. pneumo. SK 1200; [4]) [µg/mL],MIC (E. coli HH 33779) [µg/mL],MIC (Strep. faecalis HH 34358) [µg/mL],MIC (S.aureus Villaluz) [µg/mL],MIC (S.aureus HH 127; [5]) [µg/mL],"MIC [1, 6] [µg/mL]",MIC (Kleb. pneumo. SK 4200; [7]) [µg/mL],MIC (Proteus morgani 179) [µg/mL],ED50 (Klebs.pneumo. 4200; [8]) [mg/kg],ED50 (Klebs.pneumo. 4200; [9]) [mg/kg],ED50 (E.coli 12140; [10]) [mg/kg],ED50 (E.coli 12140; [11]) [mg/kg],MIC (S.aureus HH 127) [µg/mL],other results
"CC1=C(C(=O)O)N2C(=O)C(NC(=O)C(N)c3ccc(OCC(=O)O)cc3)C2SC1 (racemic) [*08016, 7-[DL-α-amino-α-(4'-carboxymethoxyphenyl)acetamido]-3-desacetoxycephalosporanic acid]",50,50,50,25,50,> 200,> 200,50,100,,,,,,,,
"CC1=C(C(=O)O)N2C(=O)C(NC(=O)[C@H](N)c3ccc(OCC(N)=O)cc3)C2SC1 (stereo partly drawn) [Compound No. 00036, 7-[D-α-Amino-α-(4'-carbamylmethoxyphenyl)acetamido]-3-desacetoxycephalosporanic acid]",25,3.1,12.5,25,50,50,200,3.1,100,25,,,,,,,
"Cc1nnc(SCC2=C(C(=O)O)N3C(=O)C(NC(=O)[C@H](N)c4ccc(SCC(=O)O)cc4)C3SC2)s1 (stereo partly drawn) [Compound No. 03616, 7-[D-α-Amino-α-(4'-carboxymethylthiophenyl)acetamido]-3-(5-methyl-1,3,4-thiadiazol-2-ylthiomethyl)-3-cephem-4-carboxylic acid]",6.3,6.3,,3.1,12.5,100,25,6.3,25,1.6,200,16,11.5,14.5,6.2,,
"N[C@@H](C(=O)NC1C(=O)N2C(C(=O)O)=C(CSc3c[nH]nn3)CSC12)c1ccc(SCC(=O)O)cc1 (stereo partly drawn) [Compound No. 04726, 7-[D-α-Amino-α-(4'-carboxymethylthiophenyl)-acetamido]-3-(1,2,3,-triazol-4-ylthiomethyl)-3-cephem-4-carboxylic acid]",25,12.5,6.3,3.1,12.5,200,100,12.5,25,3.1,,14.5,9.5,46,12.5,,
"Cn1nnnc1SCC1=C(C(=O)O)N2C(=O)C(NC(=O)[C@H](N)c3ccc(OCC(N)=O)cc3)C2SC1 (stereo partly drawn) [Compound No. 32626, 7-[D-α-Amino-α-(4'-carbamylmethoxyphenyl)acetamido]-3-(1-methyl-1,2,3,4-tetrazol-5-ylthiomethyl)-3-cephem-4-carboxylic acid]",,6.3,,,25,200,50,,,6.3,100,> 50,15.5,> 50,8.7,12.5,MIC (E.coli SK 12140): 12.5 µg/mL; MIC (Kleb. pneumo. SK 1200): 12.5 µg/mL; MIC [1]: 12.5 µg/mL
"Cc1nnc(SCC2=C(C(=O)O)N3C(=O)C(NC(=O)[C@H](N)c4ccc(NCC(=O)O)cc4)C3SC2)s1 (stereo partly drawn) [Compound No. 48536, 7-[D-α-Amino-α-(4'-carboxymethylaminophenyl)acetamido]-3-(5-methyl-1,3,4-thiadiazol-2-ylthiomethyl)-3-cephem-4-carboxylic acid]",3.1,12.5,,3.1,6.3,100,100,12.5,12.5,1.6,2.5,12.5,7.8,6.4,2,,
"CC1=C(C(=O)O)N2C(=O)C(NC(=O)[C@H](N)c3ccc(NCC(=O)O)cc3)C2SC1 (stereo partly drawn) [Compound No. 51436, 7-[D-α-Amino-α-(4'-carboxymethylaminophenyl)acetamido]-3-desacetoxycephalosphoranic acid]",25,,25,50,25,200,200,,100,,,,,,,12.5,MIC (S.aureus SK 23390): 12.5 µg/mL; MIC (Kleb. pneumo. SK 4200): 12.5 µg/mL
"Cc1nnc(SCC2=C(C(=O)O)N3C(=O)C(NC(=O)[C@H](N)c4ccc(OCC(=O)O)cc4)C3SC2)s1 (stereo partly drawn) [Compound No. 59216, 7-[D-α-Amino-α-(4'-carboxymethoxyphenyl)acetamido]-3-(5-methyl-1,3,4-thiadiazol-2-ylthiomethyl)-3-cephem-4-carboxylic acid]",6.3,25,,6.3,12.5,100,100,6.3,12.5,3.1,200,21.5,4.8,25,9.5,,
"COC(=O)COc1ccc([C@@H](N)C(=O)NC2C(=O)N3C(C(=O)O)=C(CSc4nnc(C)s4)CSC23)cc1 (stereo partly drawn) [Compound No. 96826, 7-[D-α-Amino-α-(4'-carbomethoxymethoxyphenyl)acetamido]-3-(5-methyl-1,3,4-thiadiazol-2-ylthiomethyl)-3-cephem-4-carboxylic acid]",25,3.1,12.5,25,50,25,25,3.1,50,25,25,,7.2,9.4,< 3,,ED50 (Klebs.pneumo. 4200; po): 12.5 mg/kg
"CC1=C(C(=O)O)N2C(=O)C(NC(=O)[C@H](N)c3ccc(SCC(=O)O)cc3)C2SC1 (stereo partly drawn) [compound 99316, 7-[D-α-Amino-α-(4'-carboxymethylthiophenyl)acetamido]-3-desacetoxycephalosporanic acid]",,,,6.3,50,> 200,100,,50,,> 200,15.5,,42,25,12.5,MIC (E.coli SK 12140): 12.5 µg/mL; MIC (S.aureus SK 23390): 12.5 µg/mL; MIC (Kleb. pneumo. SK 4200): 12.5 µg/mL
